US4447437A, “Pharmaceutical composition and method for treatment of peptic ulcer” (priority 1981, dated 1984)
Counter-ions that a name gives are not always drawn.

Legend:
[1] = Stability at room temperature; type: physicochemical; conditions: maleic acid salt
Solubility = type: physicochemical
in vivo = conditions: mouse, in vivo, po, LD50, ICR mice, mortality at 7 days, Litchfield-Wilcoxon method
Protocol: (§1) LD50 was calculated by the Litchfield-Wilcoxon method using mortality at 7 days after drug administration.

ICR mice = assay: in vivo; conditions: Table 4: ICR mice and Wistar rats, acute oral toxicity
Protocol: as §1

[2] = Acute oral toxicity in rats; conditions: rat, in vivo, Wistar rats, male, mortality at 7 days, Litchfield-Wilcoxon method
Shay ulcer of rats = assay: Effect on Shay ulcer of rats (pylorus ligation); type: in vivo, Wistar male rats; conditions: for Inhibition rate: ulcer-index 19 h after pylorus ligation
Protocol: Effect on Shay ulcer of rats
A group of 8 Wistar male rats weighing 130-180 g were used in a group. […] Nineteen hours after ligation, the severity of ulcerous lesions in the proventricular part of the stomach was observed and expressed in a numerical scale according to the method of Adami et al. (Arch. Int. Pharmacodyn. Ther., 143, 113 (1964)) as the ulcer-index. Inhibition of ulceration was calculated with ulcer-indexes of the treated group and those of a control group. The anti-ulcer effects of well-known therapeutic agents on the market, sulpiride and cetraxate, were examined for comparison.

[3] = known compound; cited from earlier work
[4] = system: histamine-induced ulcer in guinea-pigs; assay: Effect on histamine-induced ulcer in guinea-pigs; type: in vivo, male guinea-pigs; conditions: for Inhibition rate: 2 h
Protocol: Effect on histamine-induced ulcer in guinea-pigs
Groups of 10 male guinea-pigs weighing 280-300 g were used. […] Two hours later, the stomach was removed and the size of the ulcerous lesions were measured. Based on the size of the lesions, the inhibitory effect of the drug was estimated. The effects of sulpiride, cetraxate and aluminum sucrose sulphate were also determined for comparison.

[5] = system: acetic acid-induced ulcer in rats; assay: Effect on acetic acid-induced ulcer in rats; type: in vivo, male Wistar rats; conditions: for Inhibition rate: lesion size 12 days after acetic acid
Protocol: Effect on acetic acid-induced ulcer in rats
Groups of 14-16 male Wistar rats weighing 210-280 g were used. According to the method of Okabe et al. (Folia Pharmacologica Japonica, 74, 773 (1978)), 0.015 ml of 20% acetic acid solution was injected under the serous membrane at the border of the proventricular part and glandular part of the stomach. […] The stomach was removed 12 days after the injection of acetic acid and the size of the ulcerous lesions was measured. Based on the size of the lesions, the inhibitory effect of the drug was estimated. The effects of sulpiride were also determined for comparison.

[6] = histamine-induced ulcer, 300 mg/kg, 5 mg/kg i.v. histamine

CN1CCC2=C(C1)c1ccccc1Cc1ccccc12 [Maleic acid salt of MO-8282]
stability [1]: stable at room temperature
solubility (soluble in) (Solubility; water or ethanol, maleic acid salt): soluble in water or ethanol

CN1CCC2=C(C1)c1ccccc1Cc1ccccc12 [MO-8282, 2-N-methyl-1,2,3,4-tetrahydro-9H-dibenzo[a,e]-pyridino[3,4-c]-cycloheptatriene]
LD50 at 168 h (in vivo; female): 454 mg/kg
LD50 at 168 h (in vivo; male): 423 mg/kg
toxic dose compared with therapeutic dose (in words) (ICR mice): considerably higher than its therapeutic dose
LD50 at 168 h [2]: 630 mg/kg
inhibitory action on Shay ulcer (in words) (Shay ulcer of rats): significant inhibitory action on Shay ulcer in rats
Inhibition rate (Shay ulcer of rats; Shay ulcer, 3 mg/kg s.c.): 34.9%
Inhibition rate (Shay ulcer of rats; Shay ulcer, 10 mg/kg s.c.): 44.2%
efficacy compared with reference drugs (in words) (Shay ulcer of rats; Shay ulcer, versus sulpiride and cetraxate): superior to the two reference drugs, sulpiride and cetraxate
anti-depressive activity (in words) [3]: has anti-depressive activity
solubility (insoluble in) (Solubility; ethanol, free base): insoluble in ethanol
solubility (soluble in) (Solubility; solvents in which soluble, free base): soluble in ether, ethyl acetate, n-hexane and chloroform
inhibitory action on histamine-induced ulcers (in words) [4]: significant inhibitory action on histamine-induced ulcers in guinea-pigs
Inhibition rate ([4]; histamine-induced ulcer, 3 mg/kg orally 10 min before 5 mg/kg i.v. histamine): 54.7%
Inhibition rate ([4]; histamine-induced ulcer, 10 mg/kg orally 10 min before 5 mg/kg i.v. histamine): 98.6%
efficacy compared with reference drugs (in words) ([4]; histamine-induced ulcer, versus the reference drugs): superior to that of the reference drugs
inhibitory action on acetic acid-induced ulcer (in words) [5]: significant inhibitory action on acetic acid-induced ulcer in rats
Inhibition rate ([5]; acetic acid-induced ulcer, 3 mg/kg orally three times a day for 10 days): 23.2%
Inhibition rate ([5]; acetic acid-induced ulcer, 10 mg/kg orally three times a day for 10 days): 51.2%
promotion of healing (in words) ([5]; acetic acid-induced ulcer, microscopic observation): promotion of healing by the compound was also evident under microscopic observation
efficacy compared with reference drug (in words) ([5]; acetic acid-induced ulcer, versus sulpiride): superior to that of the reference drug with a lower dose

NC[C@H]1CC[C@H](C(=O)Oc2ccc(CCC(=O)O)cc2)CC1 [Cetraxate, reference compound]
Inhibition rate (Shay ulcer of rats; Shay ulcer, 300 mg/kg): 44.2%
Inhibition rate [4, 6]: -7.0%

CCN1CCCC1CNC(=O)c1cc(S(N)(=O)=O)ccc1OC (stereo not drawn) [Sulpiride, reference compound]
Inhibition rate (Shay ulcer of rats; Shay ulcer, 100 mg/kg): 16.3%
Inhibition rate [4, 6]: 5.6%
Inhibition rate ([5]; acetic acid-induced ulcer, 100 mg/kg): 43.9%
